molecular target: T1, Nuclear receptor ROR-gamma (Homo sapiens, UniProt P51449); test: Binding Assay : Compounds described herein were tested for ability to bind to RORγ in a cell-free competition assay with commercially available radio-ligand (RL), 25-hydroxy [26,27-3H]-cholesterol (PerkinElmer, Cat. #NET674250UC), for a ligand binding site on a recombinant RORγ Ligand Binding Domain (LBD) protein expressed as a 6×His-Glutathione-S-Transferase (GST) fusion. The assay was performed in 96-well SPA plates (PerkinElmer, Cat. #1450-401) in 50 mM HEPES buffer, pH 7.4, containing 150 mM NaCl, 5 mM MgCl2, 10% (v/v) glycerol, 2 mM CHAPS, 0.5 mM β-octylglucopyranoside and 5 mM DTT. Tested compounds were dissolved in DMSO, and semi-log (3.162×) serial dilutions of the compounds were prepared in the same solvent. Two μL of the DMSO solutions were mixed with 28 μL of 8.6 nM 25-hydroxy [26,27-3H]-cholesterol and 50 μL of 24 nM RORγ LBD. The plate was shaken at 700 rpm for 20 min and incubated for 10 min at rt, after which 40 μL of poly-Lys YSi SPA beads (PerkinElmer, Cat. #RPNQ0010) were added to achieve […] of the beads per well. The plate was incubated on an orbital shaker for 20 min and then for 10 min without agitation at rt. SPA signal for tritium beta radiation was registered on PerkinElmer Microbeta plate reader. Percent inhibition values were calculated based on the high signal obtained with DMSO control and the low signal observed with 10 μM standard RORγ inverse agonist T0901317 (SigmaAldrich, Cat. #T2320). The percent inhibition vs. concentration data were fit into a four-parameter model, and IC50 values were calculated from the fit as the concentrations corresponding to the inflection points on the dose-response curves.
T1 sequence (P51449 whole entry): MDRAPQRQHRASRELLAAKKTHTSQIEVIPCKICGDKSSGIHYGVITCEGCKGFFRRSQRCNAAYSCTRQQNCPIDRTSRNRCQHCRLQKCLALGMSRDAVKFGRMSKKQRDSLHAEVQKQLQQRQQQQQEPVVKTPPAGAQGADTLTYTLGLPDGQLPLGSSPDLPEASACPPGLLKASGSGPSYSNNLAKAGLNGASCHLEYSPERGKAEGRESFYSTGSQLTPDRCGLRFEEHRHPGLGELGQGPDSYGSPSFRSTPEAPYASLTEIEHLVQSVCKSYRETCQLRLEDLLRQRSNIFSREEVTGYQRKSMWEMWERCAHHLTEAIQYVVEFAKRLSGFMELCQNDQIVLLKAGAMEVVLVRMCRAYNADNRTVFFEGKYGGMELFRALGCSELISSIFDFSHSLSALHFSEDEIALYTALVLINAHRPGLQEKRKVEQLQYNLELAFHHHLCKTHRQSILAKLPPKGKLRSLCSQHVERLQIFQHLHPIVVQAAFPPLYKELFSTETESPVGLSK

Ki, < 0.1 µM:
CCS(=O)(=O)c1ccc(CNC(=O)c2ccc3c(c2)nc(C(F)(F)F)n3Cc2cccc3c2OC(F)(F)O3)[n+]([O-])c1
CCS(=O)(=O)c1ccc([C@H](CO)NC(=O)c2ccc3c(c2)nc(C2CC2)n3Cc2cccc3c2OC(F)(F)O3)cc1
CCS(=O)(=O)c1ccc([C@H](CO)NC(=O)c2ccc3c(c2)nc(C2(F)CCC2)n3Cc2cccc3c2OC(F)(F)O3)cc1
